Patent US9133242B2, “Peptide for use as a medicament, in particular for the treatment of cancer” (priority 2010, dated 2015)
“Also recorded” adds a separate entry of the source. Where no end group is shown, it is not given here.

Columns and labels:
Type in all cases: cell-based
[1] = system: FIBRO 1 and FIBRO 2 nontumorigenic fibroblast cells; assay: Immunofluorescent labeling of microtubule network, healthy fibroblasts; conditions: human fibroblasts FIBRO 1 and FIBRO 2, 15 μM
Procedure: FIG. 4 represents photos of non-tumor cell lines, FIBRO 1 and FIBRO 2 (fibroblast cells), treated with the peptide of SEQ. 1 at 15 μM and not treated with this peptide (control);
The specific activity of the peptide of SEQ. Two varieties of nontumorigenic fibroblast cells: FIBRO 1 and FIBRO 2, were brought into contact with the peptide of SEQ. 1 in order to see whether the microtubule network of healthy cells was also disrupted by the peptide. […] 1 (no modification of polymerized tubulin density), at the very least at concentrations of peptide of SEQ. 1 used for the cancer cells (15 μM). This observation represents an important advance of the present invention.

A 549 (Human lung tumor) = assay: MTT cell viability, A549 lung cancer line; conditions: variants tested on the A549 line; for evaluation of the activity (in words): compared with peptide SEQ. 1
Procedure: Approximately 10 000 cells were seeded, in a volume of 0.2 mL per well, into 96-well microplates for 24 hours before treatment with the peptide of SEQ. 1. The cells were incubated for 48 to 72 hours at 37° C. in a CO2 incubator in the presence or absence of the peptide of SEQ. 1 at various concentrations.
Following this incubation, MTT reagent or 3-(4,5-dimethyl[…])-2,5-diphenyltetrazolium bromide (0.5 mg/ml in a volume of 0.1 ml) was added to each well and incubated for 2 hours at 37° C.
The tetrazolium ring contained by the MTT is then reduced by the succinate dehydrogenase of the live cells, to give formazan. Next, the supernatant was removed and 0.1 ml of lysis buffer (isopropanol containing 10% of triton×100 and 10% of 1N HCl) was added in order to dissolve the bluish violet formazan precipitate formed. After a few minutes, the absorbance was determined at ambient temperature using a microplate reader at a test wavelength of 562 nm. Wells not comprising peptide of SEQ. 1 were used so as to verify the viability of control cells. IC 50 (concentration of peptide of SEQ. 1 causing 50% cytotoxicity on these cell lines) values for each cell variety were evaluated by means of the ratio of the absorbance of the treated cells to the absorbance of the control cells. […]

[2] = system: TX 1 cells (line derived from breast tumors which no longer respond to Taxol); assay: Growth inhibition of Taxol-resistant TX 1 cells; conditions: after 24 H of culture
Procedure: (§1) The studies were carried out on two cell lines, TX 1 and TX 2, derived from breast tumors which no longer respond to Taxol. […] 1 and the peptide of SEQ. 7. […]

[3] = system: TX 2 cells (line derived from breast tumors which no longer respond to Taxol); assay: Growth inhibition of Taxol-resistant TX 2 cells; conditions: after 24 H of culture
Procedure: as §1

Substance	evaluation of the activity (in words) (A 549 (Human lung tumor))	also measured
INWLKIAKKVAGML-NH2 [SEQ. 1, INWLKIAKKVAGML-NH2]	–	modification of polymerized tubulin density in healthy cells [1]: do not respond at all
INWLAIAAKVAGML [SEQ. 4, INWLAIAAKVAGML-NH2]	absolutely equivalent to the peptide SEQ. 1; also recorded: Very good activity	–
INWKKIAKKVAGML-NH2 [SEQ. 7, INWKKIAKKVAGML-NH2]	absolutely equivalent to the peptide SEQ. 1; also recorded: Very good activity	growth inhibition [2]: significant; growth inhibition [3]: significant
INWLKIAKKVAG-NH2 [SEQ. 19, INWLKIAKKVAG-NH2]	Medium activity	–
INWLKIAKKVKGML [SEQ. 9, INWLKIAKKVKGML-NH2]	absolutely equivalent to the peptide SEQ. 1; also recorded: Very good activity	–
INWLAIAKKVAGML [SEQ. 3, INWLAIAKKVAGML-NH2]	absolutely equivalent to the peptide SEQ. 1; also recorded: Very good activity	–
INWLKIAKKVAGML [SEQ. 2]	Medium activity	IC50 (A 549 (Human lung tumor)): ~15 µM
INWLKIAKKVAGM-NH2 [SEQ. 18, INWLKIAKKVAGM-NH2]	Medium activity	–
